In test [1] the test system is IFNγ induced ICAM-1 (CD54) up-regulation in A549 lung epithelial cells (JAK/Stat pathway). The experiment in a line: A549 Epithelial Line Stimulated with IFNγ (ICAM-1 surface expression, flow cytometry). In kind it is cell-based, human. The following applies: Table III Example 5. The source says: The activity of the compounds of the invention may additionally be characterized by assaying the effect of the 2,4-pyrimidinediamine compounds described herein on A549 lung epithelial cells and U937 cells. A549 lung epithelial cells and U937 cells up-regulate ICAM-1 (CD54) surface expression in response to a variety of different stimuli. Therefore, using ICAM-1 expression as readout, test compound effects on different signaling pathways can be assessed in the same cell type. Stimulation with IL-1β through the IL-1β receptor activates the TRAF6/NFκB pathway resulting in up-regulation of ICAM-1. IFNγ induces ICAM-1 up-regulation through activation of the JAK1/JAK2 pathway. The up-regulation of ICAM-1 can be quantified by flow cytometry across a compound dose curve and EC50 values are calculated. Exemplary assays of this type are described in greater detail in Examples 5 and 6.
A549 lung epithelial cells up-regulate ICAM-1 (CD54) surface expression in response to a variety of different stimuli. Therefore, using ICAM-1 expression as readout, compound effects on different signaling pathways can be assessed in the same cell type. IFNγ up-regulates ICAM-1 through activation of the JAK/Stat pathway. In this example, the up-regulation of ICAM-1 by IFNγ was assessed.
The A549 lung epithelial carcinoma cell line originated from the American Type Culture Collection. Routine culturing was with F12K media (Mediatech Inc., Lenexa, Kans., Cat. No. 10-025-CV) with 10% fetal bovine serum, 100 I.U. penicillin and […] streptomycin (complete F12k media). Cells were incubated in a humidified atmosphere of 5% CO2 at 37° C. Prior to use in the assay, A549 cells were washed with PBS and trypsinized (Mediatech Inc., Cat. No. 25-052-CI) to lift the cells. The trypsin cell suspension was neutralized with complete F12K media and centrifuged to pellet the cells. The cell pellet was resuspended in complete F12K media at a concentration of 2.0×10^5/mL. Cells were seeded at 20,000 per well, 100 μL total volume, in a flat bottom tissue culture plate and allowed to adhere overnight.
On day two, A549 cells were pre-incubated with a 2,4-pyrimidinediamine test compound or DMSO (control) (Sigma-Aldrich, St. Louis, Mo., Catalog No. D2650) for 1 hour. The cells were then stimulated with IFNγ (75 ng/mL) (Peprotech Inc., Rocky Hill, N.J., Cat. No. 300-02) and allowed to incubate for 24 hours. The final test compound dose range was 30 μM to 14 nM in 200 μL F12K media containing 5% FBS, 0.3% DMSO.
On day three, the cell media was removed and the cells were washed with 200 μL PBS (phosphate buffered saline). Each well was trypsinized to dissociate the cells, then neutralized by addition of 200 μL complete F12K media. Cells were pelleted and stained with an APC conjugated mouse anti-human ICAM-1 (CD54) (BD Pharmingen, San Diego, Calif., Catalog #559771) antibody for 20 minutes at 4° C. Cells were washed with ice cold FACS buffer (PBS+2% FBS) and surface ICAM-1 expression was analyzed by flow cytometry. Detection was performed using a BD LSR I System Flow Cytometer, purchased from BD Biosciences of San Jose, Calif. Events were gated for live scatter and the geometric mean was calculated (Becton-Dickinson CellQuest software version 3.3, Franklin Lakes, N.J.). Geometric means were plotted against the compound concentration to generate a dose response curve.

Test [2] concerns IFNγ induced ICAM-1 (CD54) up-regulation in U937 human monocytic cells (JAK/Stat pathway). Briefly: U937 IFNγ ICAM1 FACS Assay. Format: cell-based. Conditions: Table III Example 6; 10 ng/mL IFNγ, 18-24 hours. The gist of the method: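 Flow cytometry gave ICAM-1 (CD54) up-regulation as ICAM-APC geometric mean within the live-cell gate, alongside % viable cells. Human monocytic U937 cells received 3-fold serial compound dilutions for 30 min at 37 °C, followed by IFNγ stimulation lasting 18–24 h. Dose curves yielded EC50s.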

What is called IC50 is the midpoint of a concentration-inhibition curve. Read a high IC50 as weaker potency.

For `Cc1ccc(Nc2ncc(F)c(Nc3ccc(CNS(=O)(=O)C(C)C)cc3)n2)cc1S(N)(=O)=O` [Compound I-67, N2-(3-aminosulfonyl-4-methyl)phenyl-5-fluoro-N4-(4-isopropylsulfonylaminomethyl)phenyl-2,4-pyrimidinediamine], the values for the half-maximal inhibitory concentration (IC50) in test [1] and in test [2] were 3.29 µM and 321 nM, respectively.

For the compound `NS(=O)(=O)c1ccc(Nc2ncc(F)c(Nc3ccc(CNS(=O)(=O)C4CCCC4)cc3)n2)cc1` [Compound I-68, N2-(4-aminosulfonyl)phenyl-N4-(4-cyclopentylsulfonylaminomethyl)phenyl-5-fluoro-2,4-pyrimidinediamine], the IC50 in test [1] is 4.95 µM; in test [2] it was 289 nM.

As to `NS(=O)(=O)c1cccc(Nc2ncc(F)c(Nc3ccc(CNS(=O)(=O)C4CCCC4)cc3)n2)c1` [Compound I-69, N2-(3-aminosulfonyl)phenyl-N4-(4-cyclopentylsulfonylaminomethyl)phenyl-5-fluoro-2,4-pyrimidinediamine], the IC50 in test [1] stood at 7.76 µM; in test [2], 176 nM.

As to `Cc1ccc(Nc2ncc(F)c(Nc3ccc(CNS(=O)(=O)C4CCCC4)cc3)n2)cc1S(N)(=O)=O` [Compound I-70, N2-(3-aminosulfonyl-4-methyl)phenyl-N4-(4-cyclopentylsulfonylaminomethyl)phenyl-5-fluoro-2,4-pyrimidinediamine], the IC50 came to 2.58 µM in test [1] and 159 nM in test [2].

Take `NS(=O)(=O)c1ccc(Nc2ncc(F)c(Nc3ccc(CNS(=O)(=O)C4CCCCC4)cc3)n2)cc1` [Compound I-71, N2-(4-aminosulfonyl)phenyl-N4-(4-cyclohexylsulfonylaminomethyl)phenyl-5-fluoro-2,4-pyrimidinediamine]: the figures for the IC50 in test [1] and in test [2] were 10.5 µM and 401 nM, respectively.

In the case of `NS(=O)(=O)c1cccc(Nc2ncc(F)c(Nc3ccc(CNS(=O)(=O)C4CCCCC4)cc3)n2)c1` [Compound I-72, N2-(3-aminosulfonyl)phenyl-N4-(4-cyclohexylsulfonylaminomethyl)phenyl-5-fluoro-2,4-pyrimidinediamine], the IC50 worked out at 2.66 µM in test [1] and 204 nM in test [2].

With `Cc1ccc(Nc2ncc(F)c(Nc3ccc(CNS(=O)(=O)C4CCCCC4)cc3)n2)cc1S(N)(=O)=O` [Compound I-73, N2-(3-aminosulfonyl-4-methyl)phenyl-N4-(4-cyclohexylsulfonylaminomethyl)phenyl-5-fluoro-2,4-pyrimidinediamine], the IC50 amounted to 3.57 µM in test [1] and 312 nM in test [2].

Regarding `CCCN(Cc1ccc(Nc2nc(Nc3cccc(S(N)(=O)=O)c3)ncc2C)cc1)S(=O)(=O)C1CC1` [Compound I-80, N2-(3-aminosulfonyl)phenyl-N4-[4-(N-cyclopropylsulfonyl-N-propylamino)methyl]phenyl-5-methyl-2,4-pyrimidinediamine], the half-inhibitory concentration (IC50) in test [1] was 4.13 µM; in test [2], 143 nM.

As to `Cc1cnc(Nc2cc(S(N)(=O)=O)cc(S(N)(=O)=O)c2)nc1Nc1ccc(CNS(=O)(=O)C2CC2)cc1` [Compound I-84, N4-(4-cyclopropylsulfonylaminomethyl)phenyl-N2-(3,5-diaminosulfonyl)phenyl-5-methyl-2,4-pyrimidinediamine], the concentration for half-maximal inhibition (IC50) in test [1] came to 9.53 µM; in test [2], 928 nM.

Take `Cc1cnc(Nc2cccc(S(N)(=O)=O)c2)nc1Nc1ccc(CNS(=O)(=O)CC(F)(F)F)cc1` [Compound I-97, N2-(3-aminosulfonyl)phenyl-5-methyl-N4-(4-trifluoroethylsulfonylaminomethyl)phenyl-2,4-pyrimidinediamine]: the half-maximal inhibitory concentration (IC50) was found to be 13.3 µM in test [1] and 257 nM in test [2].

Take `Cc1ccc(Nc2ncc(Cl)c(Nc3ccc(CNS(=O)(=O)C4CC4)cc3)n2)cc1S(N)(=O)=O` [Compound I-113, N2-(3-aminosulfonyl-4-methyl)phenyl-5-chloro-N4-(4-cyclopropylsulfonylaminomethyl)phenyl-2,4-pyrimidinediamine]: the 50% inhibitory concentration (IC50) in test [1] is 0.888 µM; in test [2], 47.1 nM.

As for `NS(=O)(=O)c1cccc(Nc2ncc(Cl)c(Nc3ccc(CNS(=O)(=O)C4CC4)cc3)n2)c1` [Compound I-114, N2-(3-aminosulfonyl)phenyl-5-chloro-N4-(4-cyclopropylsulfonylaminomethyl)phenyl-2,4-pyrimidinediamine], the IC50 came to 5.65 µM in test [1] and 51.7 nM in test [2].

Regarding `NS(=O)(=O)c1ccc(Nc2ncc(Cl)c(Nc3ccc(CNS(=O)(=O)C4CC4)cc3)n2)cc1` [Compound I-115, N2-(4-aminosulfonyl)phenyl-5-chloro-N4-(4-cyclopropylsulfonylaminomethyl)phenyl-2,4-pyrimidinediamine], the IC50 in test [1] stood at 2.72 µM; in test [2], 105 nM.

As for `CCC(=O)N(Cc1cccc(Nc2nc(Nc3cccc(S(N)(=O)=O)c3)ncc2C)c1)S(=O)(=O)C1CC1` [Compound I-116, N2-(3-aminosulfonyl)phenyl-N4-[3-(N-cyclopropylsulfonyl-N-propionyl)aminomethyl]phenyl-5-methyl-2,4-pyrimidinediamine], the results for the IC50 in test [1] and in test [2] were 1.83 µM and 178 nM, respectively.

Take `Cc1ccc(Nc2ncc(C)c(Nc3ccc(CNS(=O)(=O)C(C)C)cc3)n2)cc1S(N)(=O)=O` [Compound I-117, N2-(3-aminosulfonyl-4-methyl)phenyl-N4-(4-isopropylsulfonylaminomethyl)phenyl-5-methyl-2,4-pyrimidinediamine]: the IC50 in test [1] came to 2.17 µM; in test [2], 60.1 nM.

Regarding `Cc1cnc(Nc2cccc(S(N)(=O)=O)c2)nc1Nc1ccc(CNS(=O)(=O)C(C)C)cc1` [Compound I-118, N2-(3-aminosulfonyl)phenyl-N4-(4-isopropylsulfonylaminomethyl)phenyl-5-methyl-2,4-pyrimidinediamine], the 50% inhibitory concentration (IC50) was found to be 2.48 µM in test [1] and 218 nM in test [2].

With `Cc1cnc(Nc2cccc(S(N)(=O)=O)c2)nc1Nc1ccc(CNS(=O)(=O)C2CC2)c(Cl)c1` [Compound I-119, N2-(3-aminosulfonyl)phenyl-N4-(3-chloro-4-cyclopropylsulfonylaminomethyl)phenyl-5-methyl-2,4-pyrimidinediamine], the IC50 in test [1] worked out at 4.42 µM; in test [2] it was 535 nM.

Take `Cc1cnc(Nc2cccc(S(N)(=O)=O)c2)nc1Nc1cccc(CN(C)S(=O)(=O)C2CC2)c1` [Compound I-120, N2-(3-aminosulfonyl)phenyl-N4-[3-(N-cyclopropylsulfonyl-N-methyl)aminomethyl]phenyl-5-methyl-2,4-pyrimidinediamine]: the figures for the IC50 in test [1] and in test [2] were 2.54 µM and 98.4 nM, respectively.

Take `Cc1cnc(Nc2cccc(S(N)(=O)=O)c2)nc1Nc1ccc(CN(C)S(=O)(=O)C2CC2)cc1` [Compound I-121, N2-(3-aminosulfonyl)phenyl-N4-[4-(N-cyclopropylsulfonyl-N-methyl)aminomethyl]phenyl-5-methyl-2,4-pyrimidinediamine]: the 50% inhibitory concentration (IC50) in test [1] worked out at 36.5 µM; in test [2], 231 nM.

Consider `Cc1cnc(Nc2ccc(S(N)(=O)=O)cc2)nc1Nc1ccc(CNS(=O)(=O)C(C)C)cc1` [Compound I-123, N2-(4-aminosulfonyl)phenyl-N4-(4-isopropylsulfonylaminomethyl)phenyl-5-methyl-2,4-pyrimidinediamine], for which the figures for the 50% inhibitory concentration (IC50) in test [1] and in test [2] were 19 µM and 164 nM, respectively.

With `Cc1cnc(Nc2ccc(S(N)(=O)=O)cc2)nc1Nc1cccc(CN(C)S(=O)(=O)C2CC2)c1` [Compound I-124, N2-(4-aminosulfonyl)phenyl-N4-[3-(N-cyclopropylsulfonyl-N-methyl)aminomethyl]phenyl-5-methyl-2,4-pyrimidinediamine], the IC50 came out at 5.72 µM in test [1] and 373 nM in test [2].

These data come from US9481654B2, “Compositions and methods for inhibition of the JAK pathway” (Rigel Pharmaceuticals, Inc., priority 2006, dated 2016).
